Measured values from patent EP0373994A1, “Mutants of simian transforming growth factor-beta 1” (ONCOGEN LIMITED PARTNERSHIP, priority 1988, dated 1990).
Like-named read-outs stand apart in the source and are kept apart here. Each block holds one compound with its values, some of them ahead of it.

How the values were obtained:
[1] = test system: TGF-β1 secretion by CHO cell line TGF-β3-2000 clone 17; experiment: Secretion of TGF-β1 by transfected CHO cells treated with glycosylation inhibitors (pulse-chase, densitometry); format: cell-based, Chinese hamster
[2] = test system: proteolytic processing of TGF-β1 precursor in TGF-β3-2000 clone 17 CHO cells; experiment: Proteolytic processing of TGF-β1 precursor in CHO cells treated with weak bases or ionophore; format: cell-based, Chinese hamster
[3] = target: T1, CHO cells overexpressing the human IGF-II/man6P receptor (Homo sapiens, UniProt P11717); experiment: Binding to CHO cells overexpressing the receptor
T1 construct: expressed in transfected cells; host or cells: CHO cells
Procedure: Binding and internalization studies with transfected and control CHO cells were performed in 24-well culture plates. Confluent cells were washed and incubated for 5 hours at 4°C with the labeled ligand in 0.3 ml of binding buffer (100 mM Hepes, pH 7.6, 120 mM NaCl, 1.2 mM MgSO₄, 15 mM sodium acetate, 5 mM glucose). Cells were then washed twice, lysed with 0.1% sodium docecyl sulfate and counted. For the internalization studies, labeled ligand was added to the cells in serum-free Ham's F-12 medium containing 0.1% bovine serum albumin and 20 mM Hepes, pH 7.6. After the indicated periods of time at 37°C, the cells were put on ice and washed with pre-cooled Hepes buffered saline containing 0.3 mM CaCl₂. […] The cells were then washed, solubilized, and counted as above.

[4] = target: T2, IGF-II/man6P receptor on adipocytes (Rattus norvegicus, UniProt G3V824); experiment: Binding to rat adipocytes with or without insulin pretreatment; conditions: 3mM, read-out: inhibition of TGF-β1 precursor binding
T2 construct: from tissue; host or cells: primary adipocytes from epididymal fat pads of male Sprague-Dawley rats
Procedure: The epididymal fat pads from male Sprague-Dawley rats (180-220 g) were excised, minced, and collagenase-digested as described (Rodberg, 1964, J. Biol. Chem. 239:375-380). The isolated adipocytes were pre-incubated with or without 1 µM insulin for 10 min at 37°C in 0.7 ml Krebs-Ringer buffer (107 mM NaCl, 5mM KCl, 3mM CaCl₂, 1mM MgSO₄, 7 mM NaHCO₃, 10 mM glucose, and 20 mM Hepes, pH 7.8) with 3% bovine serum albumin. The indicated labeled ligand was added and the incubations continued for 45 minutes at 37°. The cells were separated from the media by centrifugation through silicon oil and the radioactivity in the cell layer counted.

[5] = target: human mannose 6-phosphate/IGF-II receptor (Homo sapiens, UniProt P11717); experiment: Solid phase receptor assay, binding of 125I-TGF-β1 precursor to purified receptor
Sequence of human mannose 6-phosphate/IGF-II receptor (P11717 41-2491): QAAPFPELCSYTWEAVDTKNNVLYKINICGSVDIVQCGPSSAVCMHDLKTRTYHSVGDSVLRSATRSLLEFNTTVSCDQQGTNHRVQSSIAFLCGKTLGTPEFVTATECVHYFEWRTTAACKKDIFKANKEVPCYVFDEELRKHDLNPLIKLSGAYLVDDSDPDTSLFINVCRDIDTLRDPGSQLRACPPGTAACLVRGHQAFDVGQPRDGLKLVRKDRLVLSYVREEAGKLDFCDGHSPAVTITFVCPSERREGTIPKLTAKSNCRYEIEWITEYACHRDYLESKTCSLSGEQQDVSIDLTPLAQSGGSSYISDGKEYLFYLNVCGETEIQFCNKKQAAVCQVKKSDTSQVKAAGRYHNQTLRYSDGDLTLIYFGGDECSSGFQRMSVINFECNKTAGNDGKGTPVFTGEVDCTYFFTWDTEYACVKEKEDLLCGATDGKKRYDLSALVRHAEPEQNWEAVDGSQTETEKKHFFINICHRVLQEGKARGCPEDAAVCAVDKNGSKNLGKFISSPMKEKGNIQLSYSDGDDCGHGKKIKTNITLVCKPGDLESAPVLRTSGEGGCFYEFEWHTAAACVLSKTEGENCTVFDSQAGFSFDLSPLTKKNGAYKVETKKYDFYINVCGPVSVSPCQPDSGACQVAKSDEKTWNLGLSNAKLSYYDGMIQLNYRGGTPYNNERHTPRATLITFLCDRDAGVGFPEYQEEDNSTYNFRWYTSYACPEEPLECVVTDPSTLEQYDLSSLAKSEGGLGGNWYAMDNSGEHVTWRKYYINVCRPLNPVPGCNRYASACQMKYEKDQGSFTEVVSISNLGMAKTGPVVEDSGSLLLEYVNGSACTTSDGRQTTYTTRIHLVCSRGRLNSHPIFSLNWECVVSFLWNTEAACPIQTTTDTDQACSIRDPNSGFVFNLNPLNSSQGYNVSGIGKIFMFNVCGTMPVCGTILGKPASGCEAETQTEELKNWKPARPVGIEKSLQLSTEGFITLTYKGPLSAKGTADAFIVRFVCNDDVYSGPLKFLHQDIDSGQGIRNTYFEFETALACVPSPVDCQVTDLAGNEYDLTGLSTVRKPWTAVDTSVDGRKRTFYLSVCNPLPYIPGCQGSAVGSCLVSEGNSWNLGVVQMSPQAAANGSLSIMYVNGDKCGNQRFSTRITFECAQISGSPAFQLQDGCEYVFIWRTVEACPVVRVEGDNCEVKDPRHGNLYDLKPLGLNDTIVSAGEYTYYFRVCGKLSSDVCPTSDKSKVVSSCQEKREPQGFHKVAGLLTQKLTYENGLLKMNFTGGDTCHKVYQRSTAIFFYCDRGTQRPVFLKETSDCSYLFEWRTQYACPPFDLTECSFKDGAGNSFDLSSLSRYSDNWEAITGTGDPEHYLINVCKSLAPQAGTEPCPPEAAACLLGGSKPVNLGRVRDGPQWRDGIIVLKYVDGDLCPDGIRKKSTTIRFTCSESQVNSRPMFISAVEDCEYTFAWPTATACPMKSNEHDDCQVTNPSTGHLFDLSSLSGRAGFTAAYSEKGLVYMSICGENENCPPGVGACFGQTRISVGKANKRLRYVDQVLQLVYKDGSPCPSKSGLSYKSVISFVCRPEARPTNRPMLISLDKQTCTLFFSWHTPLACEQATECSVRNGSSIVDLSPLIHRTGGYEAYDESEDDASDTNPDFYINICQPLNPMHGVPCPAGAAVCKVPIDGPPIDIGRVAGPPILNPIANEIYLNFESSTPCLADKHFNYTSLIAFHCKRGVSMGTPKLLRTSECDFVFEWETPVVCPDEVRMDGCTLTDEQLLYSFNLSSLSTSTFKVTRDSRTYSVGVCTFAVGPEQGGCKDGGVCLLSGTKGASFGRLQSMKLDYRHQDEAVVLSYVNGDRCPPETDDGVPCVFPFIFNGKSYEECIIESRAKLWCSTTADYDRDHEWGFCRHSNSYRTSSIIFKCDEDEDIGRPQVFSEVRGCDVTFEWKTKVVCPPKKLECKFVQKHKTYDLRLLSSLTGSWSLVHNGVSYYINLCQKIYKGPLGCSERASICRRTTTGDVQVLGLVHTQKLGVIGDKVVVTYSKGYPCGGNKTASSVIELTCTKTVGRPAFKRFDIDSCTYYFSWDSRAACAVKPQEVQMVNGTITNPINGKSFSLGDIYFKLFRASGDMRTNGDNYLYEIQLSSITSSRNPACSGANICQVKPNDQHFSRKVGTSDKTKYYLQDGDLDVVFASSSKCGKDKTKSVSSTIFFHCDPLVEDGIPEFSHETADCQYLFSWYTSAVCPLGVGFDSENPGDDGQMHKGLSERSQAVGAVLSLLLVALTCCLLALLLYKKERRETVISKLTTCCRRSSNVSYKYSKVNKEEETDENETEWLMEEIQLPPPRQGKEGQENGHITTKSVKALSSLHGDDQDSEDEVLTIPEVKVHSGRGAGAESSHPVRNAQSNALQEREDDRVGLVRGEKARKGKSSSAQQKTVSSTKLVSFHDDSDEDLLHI

T1 sequence (P11717 41-2491): as above
T2 sequence (G3V824 36-2481): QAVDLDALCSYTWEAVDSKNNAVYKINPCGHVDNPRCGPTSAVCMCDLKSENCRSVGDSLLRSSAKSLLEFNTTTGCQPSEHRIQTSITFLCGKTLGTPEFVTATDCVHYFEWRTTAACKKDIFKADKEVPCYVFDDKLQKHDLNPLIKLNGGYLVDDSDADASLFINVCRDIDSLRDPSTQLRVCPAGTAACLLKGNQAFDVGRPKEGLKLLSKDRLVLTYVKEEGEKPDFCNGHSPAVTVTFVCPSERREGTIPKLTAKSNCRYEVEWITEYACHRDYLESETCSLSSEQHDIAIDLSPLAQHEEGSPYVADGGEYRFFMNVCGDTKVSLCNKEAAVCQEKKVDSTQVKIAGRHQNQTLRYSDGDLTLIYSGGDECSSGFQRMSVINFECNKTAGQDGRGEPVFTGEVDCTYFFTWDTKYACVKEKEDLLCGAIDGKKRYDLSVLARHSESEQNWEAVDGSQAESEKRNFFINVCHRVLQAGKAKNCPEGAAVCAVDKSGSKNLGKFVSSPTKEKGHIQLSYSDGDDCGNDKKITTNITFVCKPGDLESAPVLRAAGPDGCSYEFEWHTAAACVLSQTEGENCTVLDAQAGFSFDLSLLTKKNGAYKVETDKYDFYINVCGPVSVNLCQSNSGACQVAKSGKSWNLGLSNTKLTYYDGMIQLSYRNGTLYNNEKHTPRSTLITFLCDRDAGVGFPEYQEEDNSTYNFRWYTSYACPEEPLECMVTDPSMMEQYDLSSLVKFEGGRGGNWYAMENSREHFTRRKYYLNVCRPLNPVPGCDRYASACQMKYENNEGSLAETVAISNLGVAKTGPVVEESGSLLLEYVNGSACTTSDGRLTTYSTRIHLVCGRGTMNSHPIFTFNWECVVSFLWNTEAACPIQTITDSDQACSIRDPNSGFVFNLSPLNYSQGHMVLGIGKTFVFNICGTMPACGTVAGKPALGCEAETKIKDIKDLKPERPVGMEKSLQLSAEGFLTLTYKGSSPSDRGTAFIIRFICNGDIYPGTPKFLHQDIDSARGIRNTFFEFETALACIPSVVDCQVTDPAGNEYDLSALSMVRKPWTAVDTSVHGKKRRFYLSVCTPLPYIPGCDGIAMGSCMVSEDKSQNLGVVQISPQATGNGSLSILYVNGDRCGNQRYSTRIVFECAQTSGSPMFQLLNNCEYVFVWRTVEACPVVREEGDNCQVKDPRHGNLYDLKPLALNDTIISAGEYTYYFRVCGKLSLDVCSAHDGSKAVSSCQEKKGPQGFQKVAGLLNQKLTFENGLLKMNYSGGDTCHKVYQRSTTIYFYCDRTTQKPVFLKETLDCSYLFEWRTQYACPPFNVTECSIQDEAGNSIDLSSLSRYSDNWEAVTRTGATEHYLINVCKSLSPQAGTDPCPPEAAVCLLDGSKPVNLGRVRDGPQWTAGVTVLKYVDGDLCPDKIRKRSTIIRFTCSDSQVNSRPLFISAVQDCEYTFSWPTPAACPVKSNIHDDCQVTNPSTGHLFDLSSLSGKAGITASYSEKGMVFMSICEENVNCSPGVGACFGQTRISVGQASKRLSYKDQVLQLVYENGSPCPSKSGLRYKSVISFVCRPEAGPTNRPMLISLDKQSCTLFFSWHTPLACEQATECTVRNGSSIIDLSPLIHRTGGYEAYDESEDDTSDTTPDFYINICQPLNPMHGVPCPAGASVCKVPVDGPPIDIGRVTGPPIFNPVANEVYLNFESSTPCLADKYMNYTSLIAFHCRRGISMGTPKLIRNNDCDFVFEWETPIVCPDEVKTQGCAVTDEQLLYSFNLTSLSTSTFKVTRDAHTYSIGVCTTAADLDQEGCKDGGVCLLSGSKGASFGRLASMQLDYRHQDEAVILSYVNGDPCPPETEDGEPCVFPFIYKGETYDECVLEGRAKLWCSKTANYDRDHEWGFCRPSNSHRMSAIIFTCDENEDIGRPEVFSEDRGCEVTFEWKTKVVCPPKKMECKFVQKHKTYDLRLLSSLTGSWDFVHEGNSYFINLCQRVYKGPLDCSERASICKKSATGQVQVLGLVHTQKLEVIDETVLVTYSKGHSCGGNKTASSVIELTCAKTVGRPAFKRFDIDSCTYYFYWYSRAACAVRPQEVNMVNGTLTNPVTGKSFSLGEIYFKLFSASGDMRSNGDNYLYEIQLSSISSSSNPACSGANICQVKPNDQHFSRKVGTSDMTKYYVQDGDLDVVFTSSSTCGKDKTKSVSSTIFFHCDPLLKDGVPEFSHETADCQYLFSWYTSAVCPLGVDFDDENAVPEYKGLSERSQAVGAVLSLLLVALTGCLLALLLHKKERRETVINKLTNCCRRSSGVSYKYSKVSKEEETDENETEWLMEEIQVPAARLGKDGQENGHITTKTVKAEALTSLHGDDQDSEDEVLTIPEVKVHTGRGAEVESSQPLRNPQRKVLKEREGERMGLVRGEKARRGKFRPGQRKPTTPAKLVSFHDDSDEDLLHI

Compound: O[C@H]1[C@H](O)[C@@H](O)CN2CC[C@H](O)[C@H]12 [CA, castanospermine]
- activity at 520 µM ([1]; Cricetulus griseus, CHO, 6 h, read-out: level of secretion relative to control cells): 5 to 15%

Compound: CCN(CC)CCCC(C)Nc1ccnc2cc(Cl)ccc12 (stereo not drawn) [Chloroquine, Chloroquine diphosphate]
- activity at 200 µM ([2]; Cricetulus griseus, CHO, 6 h chase, 10mM ammonium chloride, 200 µM chloroquine, 1 µM monensin, read-out: cleavage efficiency (proteolytic processing) relative to control values): ~20%

Compound: O=P(O)(O)OC1O[C@H](CO)[C@@H](O)[C@H](O)[C@@H]1O (stereo partly drawn) [Mannose 1-phosphate, mannose 1-phosphate]
- times less effective than man6P at inhibiting binding of the TGF-β1 precursor ([3]; FIG. 37A): at least 1,000 times

Compound: O[C@H]1[C@H]2[C@H](O)CCCN2C[C@H]1O [SW, swainsonine]
- activation at 230 µM ([1]; Cricetulus griseus, CHO, 6 h, read-out: increase in levels of secreted recombinant proteins): ~30%

Compound: OC[C@H]1NC[C@@H](O)[C@@H](O)[C@@H]1O [dMM, 1-deoxymannojirimycin]
- activation at 4000 µM ([1]; Cricetulus griseus, CHO, 6 h chase, 0.23 mM SW, 4 mM dMM, read-out: increase in levels of secreted recombinant proteins): ~30%

Compound: OC[C@H]1NC[C@H](O)[C@@H](O)[C@@H]1O [dN, 1-deoxynojirimycin]
- activity at 4000 µM ([1]; Cricetulus griseus, CHO, 6 h chase, 6 µM TU, 0.52 mM CA, 4 mM dN, read-out: level of secretion relative to control cells): 5 to 15%

- inhibition at 3000 µM ([4]; control adipocytes): 65%
- inhibition at 3000 µM ([4]; insulin-treated adipocytes): 81%
- IC50 ([3]; FIG. 37A, read-out: half-maximal inhibition of TGF-β1 precursor binding to transfected CHO cells): 10 µM
- IC50 ([3]; read-out: half-maximal inhibition of rTGF-β1 precursor binding to transfected CHO cells): 10 µM
- inhibition at 50 µM ([5]; 50µM competitor, read-out: inhibition of 125I-labeled TGF-β1 precursor binding to purified receptor): 90%
- IC50 ([5]; read-out: half-maximal inhibition of binding to the isolated receptor): 8 µM
Compound: O=P(O)(O)OC[C@H]1OC(O)[C@@H](O)[C@@H](O)[C@@H]1O (stereo partly drawn) [mannose 6-phosphate]

Compound: CC[C@@]1([C@@H]2O[C@@H]([C@H]3O[C@@](O)(CO)[C@H](C)C[C@@H]3C)C[C@@H]2C)CC[C@H]([C@]2(C)CC[C@]3(C[C@H](O)[C@@H](C)[C@@H]([C@@H](C)[C@@H](OC)[C@H](C)C(=O)O)O3)O2)O1 [monensin]
- cleavage efficiency (proteolytic processing) relative to control values [2]: ~20%

Compound: ammonium chloride
- cleavage efficiency (proteolytic processing) relative to control values ([2]; 6 h chase, 10mM ammonium chloride, 200 µM chloroquine, 1 µM monensin): about 70%

Compound: tunicamycin
- level of secretion relative to control cells ([1]; 6 h chase, 6 µM TU, 0.52 mM CA, 4 mM dN): 5-15%
